Source: publication doi:10.1101/2024.05.17.594634, “Protein Structure Inspired Drug Discovery” (bioRxiv, 2024)

How the values were obtained:
HT116 colon cancer cells = experiment: Eight-day colony formation assay, HT116; format: cell-based, human
Procedure: (§1) We sought to identify compounds that would inhibit the growth of cancer cells, but that also did so selectively. Inhibition of cancer cell growth is a highly sought after attribute of anticancer agents. This was assessed by measuring the ability of a compound to inhibit cell growth in eight-day colony formation assays, examining concentrations ranging from 0.017 to 40 μM. Breast, colon, lung and prostate cancer are four of the most common causes of cancer in the United States, are major causes of cancer cell death, and were examined.[64] Two cell lines for each cancer type were assessed: A549 (adenocarcinoma) and H226 (squamous carcinoma) for lung, MCF-7 (estrogen receptor [ER] positive) and MDA-MB-231 (ER negative) for breast, LNCaP (androgen receptor [AR] positive) and PC3-M (AR negative) for prostate, and HCT116 (wild type p53, mutated KRAS) and HT29 (p53 mutant) for colon.[65]
(§2) In considering effect on cancer cells, for each compound and each cell line tested we calculated the efficacy ratio, i.e., efficacy ratio = (percent of remaining cancer cell colonies)/(percent of remaining bone marrow colonies), at 8 days after treatment with 40 μM compound (S4 Fig). We considered those with an efficacy ratio below 0.5 as active and at least partially selective. The stringency of this is highlighted by considering the effect of 5FU on colon cancer, where it is frequently used clinically in proven curative settings, as well as proven life prolonging settings.[70, 71] […] Even at 5.7 μM, where 5FU is toxic to bone marrow, with hematopoietic colony formation at 38% of control, the efficacy ratio for HT29 cells has only dropped to 0.52. […] It can be seen that compounds segregate to protein sites. Specifically, of 10 compounds meeting this activity criteria (i.e., efficacy ratio <0.5), 3 were directed at the Dxr2 site, 3 at FolC2, 2 at FolC1, 1 at Dxr1 and 1 at TYLT.
(§3) Eight-day colony formation assays of cancer cells were performed as described by us.[87] Briefly, 0.5–1.0 × 10^3 cells were seeded into a 12 well plate, after 24 hours compound added and eight days later colonies (of 3 or more cells) were scored after trypan blue staining. Conditions were in replicates of N = 2. All compounds were stored under desiccated conditions in a sealed container at minus 20°C upon arrival. One day prior to use, they were placed into DMSO, stored at […] as stock solutions, thawed just prior to use, and not reused.

H226 lung cancer cells = experiment: Eight-day colony formation assay, H226; format: cell-based, human
Procedure: as §1, §2, §3

A549 lung cancer cells = experiment: Eight-day colony formation assay, A549; format: cell-based, human
Procedure: as §1, §2, §3

[1] = system: PC3-M prostate cancer cells; experiment: Eight-day colony formation assay, PC3-M; format: cell-based, human
Procedure: as §1, §2, §3

[2] = system: human breast, prostate, colon and lung cancer cells; experiment: Eight-day colony formation assays, summary across the cancer cell line panel; format: cell-based
Procedure: as §1, §2, §3

[3] = system: HT29, MDA-MB-231 and H226; experiment: NCI-60 cell line screen, other cell lines; format: cell-based, human; conditions: 10 μM X 48 hours
Procedure: Above findings support the importance of Dxr2 and FolC2 sites, and of Dxr2-017 and FolC2-001 compounds, respectively. The predicted poses of Dxr2-017 bound to the Dxr2 site and FolC2-001 bound to the FolC2 site are shown (Fig 7). The NCI-60 cell line screen evaluates compound growth inhibition and cell toxicity in a highly standardized manner across 60 different cell lines. Dxr2-017 and FolC2-001 were evaluated in this assay (S5 Fig). NCI-60 screens evaluate compounds at 10 μM X 48 hours. […] Of high interest, in the NCI-60 screen Dxr2-017 had relatively high activity against melanoma cell lines, inducing cell death in 5 cell lines ranging from 25–65%, and inhibiting growth in 4 cell lines ranging from 76–96%. Its impact on cell death represents the most striking relative difference in response across cell lines.

M14 cells = experiment: Cell cycle analysis by flow cytometry, M14; format: cell-based, human; conditions: 20 nM, eight days
Procedure: Fig 8. Dxr2-017 inhibits melanoma cell growth through induction of anoikis. (A) Inhibition of melanoma cell growth. Cells were treated with different concentrations of Dxr2-017 and formation of colonies at eight days depicted. Data are expressed as percent of untreated control and are the mean ± SEM (N=3 replicates) of a single experiment. (B) No effect on cycle progression. M14 and SK-MEL-5 cells were treated for 8 days with 20 and 50 nM Dxr2-017, respectively, and phase of cell cycle determined by flow cytometry. Data are the mean ± SEM (N=3). *denotes P-value ≤0.05. (C) Transition to floating cells. Cells were treated for three days with different Dxr2-017 concentrations. Depicted are representative light photomicrographs at 20X; scale bar is150 μm. Blue and green arrows denote adherent and floating cells, respectively. (D) Cleaved caspase 3 is induced in floating cells. Cells were treated for 3 days, cell lysate from only adherent cells, or from adherent and floating cells combined, was probed by Western blot for cleaved caspase 3. All experiments were repeated at separate times, yielding similar results.
A total of 1 × 10^4 M14 cells and 1 × 10^4 SK-MEL-5 cells were seeded into 10 cm culture dishes. […] Cells were analyzed by flow cytometry (FACSCalibur3 analyzer, BD Biosciences), and the percentage of cells within G0/G1, S, and G2/M phases were determined via analysis using Modfit LT 4.0.5.

c1ccc2sc(-c3ccc(CNc4ccc5nnnn5n4)o3)nc2c1 [Dxr2-017]
efficacy ratio (cancer cell colonies to bone marrow colonies at 8 days) (HT116 colon cancer cells; 5.7 μM): 0.69
efficacy ratio (cancer cell colonies to bone marrow colonies at 8 days) (HT116 colon cancer cells; 40 μM): 0.08
efficacy ratio (cancer cell colonies to bone marrow colonies at 8 days) (H226 lung cancer cells; 5.7 μM): 0.12
efficacy ratio (cancer cell colonies to bone marrow colonies at 8 days) (H226 lung cancer cells; 40 μM): 0.02
efficacy ratio (cancer cell colonies to bone marrow colonies at 8 days) (A549 lung cancer cells; 5.7 μM): 1.26
efficacy ratio (cancer cell colonies to bone marrow colonies at 8 days) (A549 lung cancer cells; 40 μM): 0.07
efficacy ratio (cancer cell colonies to bone marrow colonies at 8 days) ([1]; 5.7 μM): 0.41
efficacy ratio (cancer cell colonies to bone marrow colonies at 8 days) ([1]; 40 μM): 0.00
relative activity for a given compound, % (% of cells tested where ratio is <0.5) ([2]; 5.7 μM): 75%
mean efficacy ratio for cells where the efficacy ratio is below 0.5 ([2]; 5.7 μM, mean ± SEM): 0.25 ± 0.091
relative activity for a given compound, % (% of cells tested where ratio is <0.5) ([2]; 40 μM): 100%
mean efficacy ratio for cells/compounds where the efficacy ratio is below 0.5 ([2]; 40 μM, mean ± SEM): 0.03 ± 0.01
activity in NCI-60 screen [3]: activity against HT29, MDA-MB-231 and H226
change in cell cycle parameters (M14 cells): little-to-no change in cell cycle parameters
